# Data: patent US20050267133A1, “Pyrazolopyrimidines as kinase inhibitors” (priority 2002, published 2005)
# Assays:
# [1] = biological target: GSK-3β (Homo sapiens, UniProt P49841); experiment: GSK3 scintillation proximity assay (SPA) kinase assay; assay type: biochemical; details: 20 nM kinase, 2.5 uM ATP, biotinylated glycogen synthase peptide, 40 minutes at room temperature; -log IC50 in Molar; read-out: GSK-3 pIC50 (converted)
# Source text: The phosphorylated biotinylated peptide is then captured onto streptavidin coated scintillation proximity assay (SPA) beads from Amersham Technology, where the signal from the ^33P is amplified via the scintillant contained in the beads.
# GSK-3β is commercially available or may be cloned and expressed in E. coli using standard techniques to produce soluble, active protein. The production of active protein involves purification in two steps using Metal Chelate and Ion Exchange Chromatography. Protein eluting from Ion Exchange provides >90% pure product that may then be concentrated for use in high throughput screening.
# The kinase was assayed at a concentration of 20 nM final in 100 mM HEPES, pH 7.2 containing 10 mM magnesium chloride, 0.1 mg/mL bovine serum albumin, 1 mM dithiothreitol, 0.3 mg/mL heparin, 2.8 uM peptide substrate, 2.5 uM ATP, and 0.2 uCi/well [[…]-^33P]-ATP. After 40 minutes incubation at room temperature, the reaction was stopped by addition of 100 mM EDTA and […] in 100 mM HEPES, pH7.2 followed by an additional solution of diluted Streptavidin coated SPA beads in PBS, pH 7.2 to give a final concentration of 0.25 mg of beads per assay well in a 96-well microtiter plate.
# 10 mM stock solutions of the compounds of the invention in 100% DMSO are generated as a first step in the screening process. The second step involves the creation of dose response plates where these compounds are diluted 10-fold in 100% DMSO to 1 mM concentrations and subsequently serially diluted 3-fold in 100% DMSO across the plate by automated liquid handling such that the final top concentration of inhibitor is 0.033 mM in the 30 uL kinase assay. The third step involves the creation of the assay plates. This is achieved by transferring 1 uL of the compounds to assay plates by automated liquid handling. The fourth step is to perform the assay as described and count the resulting plates in the Packard TopCount NXT microplate scintillation and luminescence counter.
# The final step is data acquisition and analysis where IC50 values are generated for each compound by normalizing curve data to the equation 100*(U1−C2)/(C1−C2) (where U1 is the cpm value, C2 is the background, and C1 is the maximum number of counts), then fitting the normalized data to the equation y=Vmax*(1−(x/(K+x))). The IC50 values were converted to pIC50 values, i.e., −log IC50 in Molar concentration. The data is expressed below in Table 1.
# [2] = biological target: T1, GST-TIE2 (intracellular domains of human TIE2) (Homo sapiens, UniProt Q02763); experiment: TIE-2 Enzyme Assay (TIE2-E), LANCE method; assay type: biochemical; details: preactivated GST-TIE2, 1 μM D1-15 peptide, 80 uM ATP, 30 mins at room temperature; pIC50 = -log IC50 in Molar
# T1 construct: made in house
# T1 sequence (Q02763 762-1104): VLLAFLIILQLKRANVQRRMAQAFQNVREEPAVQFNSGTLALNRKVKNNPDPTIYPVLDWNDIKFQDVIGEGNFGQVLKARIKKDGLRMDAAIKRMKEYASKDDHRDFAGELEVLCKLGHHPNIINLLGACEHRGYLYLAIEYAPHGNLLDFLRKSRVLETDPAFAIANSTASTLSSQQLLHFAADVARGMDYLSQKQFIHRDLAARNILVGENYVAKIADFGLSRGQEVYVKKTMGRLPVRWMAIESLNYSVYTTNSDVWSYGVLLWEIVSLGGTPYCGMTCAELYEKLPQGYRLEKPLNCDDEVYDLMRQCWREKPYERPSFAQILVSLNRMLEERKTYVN
# Source text: The TIE-2 enzyme assay used the LANCE method (Wallac) and GST-TIE2, baculovirus expressed recombinant constructs of the intracellular domains of human TIE2 (amino acids 762-1104, GenBank Accession # L06139) tagged by GST). The method measured the ability of the purified enzymes to catalyse the transfer of the γ-phosphate from ATP onto tyrosine residues in a biotinylated synthetic peptide, D1-15 (biotin-C6-LEARLVAYEGWVAGKKKamide). This peptide phosphorylation was detected using the following procedure: for enzyme preactivation, GST-TIE2 was incubated for 30 mins at room temperature with 2 mM ATP, 5 mM MgCl2 and 12.5 mM DTT in 22.5 mM HEPES buffer (pH7.4). Preactivated GST-TIE2 was incubated for 30 mins at room temperature in 96 well plates with 1 μM D1-15 peptide, 80 uM ATP, 10 mM MgCl2, 0.1 mg/ml BSA and the test compound (diluted from a 10 mM stock in DMSO, final DMSO concentration was 2.4%) in 1 mM HEPES (pH7.4). The reaction was stopped by the addition of EDTA (final concentration 45 mM). Streptavidin linked-APC (allophycocyanin, Molecular Probe) and Europium-labeled anti-phosphorylated tyrosine antibody (Wallac) were then added at the final concentration of 17 μg/well and 2.1 μg/well, respectively. The APC signal was measured using an ARVO multilabel counter. (Wallac Berthold Japan). The percent inhibition of activity was calculated relative to blank control wells.
# The concentration of test compound that inhibits 50% of activity (IC50) was interpolated using nonlinear regression (Levernberg-Marquardt) and the equation, y=Vmax (1−x/(K+x))+Y2, where “K” was equal to the IC50. The IC50 values were converted to pIC50 values, i.e., −log IC50 in Molar concentration.
# Test compounds are employed in free or salt form.
# Chain of GSK-3β (P49841 whole entry, species assumed): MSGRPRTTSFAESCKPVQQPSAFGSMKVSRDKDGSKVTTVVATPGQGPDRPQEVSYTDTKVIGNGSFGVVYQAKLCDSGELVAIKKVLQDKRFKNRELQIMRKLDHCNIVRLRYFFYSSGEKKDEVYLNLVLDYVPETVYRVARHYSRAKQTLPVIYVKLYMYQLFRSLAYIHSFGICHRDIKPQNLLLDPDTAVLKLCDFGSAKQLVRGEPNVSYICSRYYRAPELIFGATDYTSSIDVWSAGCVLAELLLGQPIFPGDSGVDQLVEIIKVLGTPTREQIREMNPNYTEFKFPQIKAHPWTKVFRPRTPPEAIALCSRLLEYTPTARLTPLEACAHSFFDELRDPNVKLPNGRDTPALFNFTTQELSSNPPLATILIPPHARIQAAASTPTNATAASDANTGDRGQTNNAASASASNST
IC50 [1] [µM],IC50 [2] [µM],SMILES
0.1 to 1,0.1 to 1,"O=C(NCCN1CCCC1)c1ccc(/C=N/Nc2ncnc3c2cnn3-c2ccccc2)cc1 [Example 34, 4-{(E)-[(1-phenyl-1H-pyrazolo[3,4-d]pyrimidin-4-yl)hydrazono]methyl}-N-(2-pyrrolidin-1-ylethyl)benzamide]"
0.1 to 1,0.1 to 1,"CN(CCc1ccccn1)C(=O)c1ccc(/C=N/Nc2ncnc3c2cnn3-c2ccccc2)cc1 [Example 30, N-Methyl-4-{(E)-[(1-phenyl-1H-pyrazolo[3,4-d]pyrimidin-4-yl)hydrazono]methyl}-N-(2-pyridin-2-ylethyl)benzamide]"
1 to 10,0.1 to 1,"CCOc1cc(/C=N/Nc2ncnc3c2cnn3-c2ccccc2)cc(Br)c1O [Example 46, 3-Bromo-4-hydroxy-3-ethoxybenzaldehyde (1-phenyl-1H-pyrazolo[3,4-d]pyrimidin-4-yl)hydrazone]"
0.1 to 1,0.1 to 1,"CC(=O)Nc1ccc(/C=N/Nc2ncnc3c2cnn3-c2ccccc2)cc1 [Example 52, 4-Acetamidobenzaldehyde [1-(phenyl)-1H-pyrazolo[3,4-d]pyrimidin-4-yl]hydrazone]"
< 0.1,0.1 to 1,"COc1cc(/C=N/Nc2ncnc3c2cnn3-c2ccccc2)cc(O)c1OC [Example 7, 3-Hydroxy-4,5-dimethoxybenzaldehyde (1-phenyl-1H-pyrazolo[3,4-d]pyrimidin-4-yl)hydrazone]"
0.1 to 1,0.1 to 1,"COc1ccc(/C=N/Nc2ncnc3c2cnn3-c2ccccc2)cc1OC [Example 56, 3,4-Dimethoxybenzaldehyde [1-(phenyl)-1H-pyrazolo[3,4-d]pyrimidin-4-yl]hydrazone]"
0.1 to 1,1 to 10,"OCCOc1ccc(/C=N/Nc2ncnc3c2cnn3-c2ccccc2)cc1 [Example 53, 4-(2-Hydroxyethoxy)benzaldehyde [1-(phenyl)-1H-pyrazolo[3,4-d]pyrimidin-4-yl]hydrazone]"
1 to 10,1 to 10,"OCc1ccc(/C=N/Nc2ncnc3c2cnn3-c2ccccc2)o1 [Example 51, 5-Hydroxymethyl-2-furaldehyde [1-(phenyl)-1H-pyrazolo[3,4-d]pyrimidin-4-yl]hydrazone]"
0.1 to 1,1 to 10,"Oc1cccc(/C=N/Nc2ncnc3c2cnn3-c2ccccc2)c1 [Example 6, 3-Hydroxybenzaldehyde (1-phenyl-1H-pyrazolo[3,4-d]pyrimidin-4-yl)hydrazone]"
0.1 to 1,0.1 to 1,"COCCN1CCN(C(=O)c2ccc(/C=N/Nc3ncnc4c3cnn4-c3ccccc3)cc2)CC1 [Example 36, 4-{[4-(2-methoxyethyl)piperazin-1-yl]carbonyl}benzaldehyde (1-phenyl-1H-pyrazolo[3,4-d]pyrimidin-4-yl)hydrazone]"
0.1 to 1,1 to 10,"Fc1ccc(/C=N/Nc2ncnc3c2cnn3-c2ccccc2)cc1 [Example 50, 4-Fluorobenzaldehyde (1-phenyl-1H-pyrazolo[3,4-d]pyrimidin-4-yl)hydrazone]"
0.1 to 1,0.1 to 1,"OCc1cc(/C=N/Nc2ncnc3c2cnn3-c2ccccc2)ccc1O [Example 44, 4-Hydroxy-3-hydroxymethylbenzaldehyde (1-phenyl-1H-pyrazolo[3,4-d]pyrimidin-4-yl)hydrazone]"
0.1 to 1,0.1 to 1,"O=C(O)/C=C/c1ccc(/C=N/Nc2ncnc3c2cnn3-c2ccccc2)cc1 [Example 61, 4-Formylcin namic acid [1-(phenyl)-1H-pyrazolo[3,4-d]pyrimidin-4-yl]hydrazone]"
< 0.1,0.1 to 1,"CN(C)CCNC(=O)c1ccc(/C=N/Nc2ncnc3c2cnn3-c2ccccc2)cc1 [Example 25, N-[2-(dimethylamino)ethyl]-4-{(E)-[(1-phenyl-1H-pyrazolo[3,4-d]pyrimidin-4-yl)hydrazono]methyl}benzamide]"
